For orientation: IC50 means the point on the concentration scale where inhibition reaches its midpoint. Read a low IC50 as higher potency.

Experiment [1] has as its target T1, C-X-C chemokine receptor type 4 (Homo sapiens, UniProt P61073). As to the kind of experiment: Displacement of [125I]-SDF-1alpha from human CXCR4 receptor expressed in HEK293 cells after 1 hr by gamma counting. Format: cell-based.
For experiment [2], the target named is T1, C-X-C chemokine receptor type 4. Nature of the experiment: Agonist activity at CXCR4 receptor in human REH cells assessed as induction of chemotactic migration after 3 hrs. In kind it is functional, cell-based.
Experiment [3] has the same target. Nature of the experiment: Agonist activity at CXCR4 receptor in human REH cells assessed as induction of chemotactic migration at 10 nM after 3 hrs. Format: functional, cell-based.
The target is the same in experiment [4]. Nature of the experiment: Antagonist activity at CXCR4 receptor in human REH cells assessed as inhibition of SDF-1alpha-induced chemotactic migration after 3 hrs. Format: functional, cell-based.

Each structure is given as a SMILES string. The source made the active and inactive calls. The calls are words filed in the database; no cut-off is given here.

T1 sequence (P61073 whole entry): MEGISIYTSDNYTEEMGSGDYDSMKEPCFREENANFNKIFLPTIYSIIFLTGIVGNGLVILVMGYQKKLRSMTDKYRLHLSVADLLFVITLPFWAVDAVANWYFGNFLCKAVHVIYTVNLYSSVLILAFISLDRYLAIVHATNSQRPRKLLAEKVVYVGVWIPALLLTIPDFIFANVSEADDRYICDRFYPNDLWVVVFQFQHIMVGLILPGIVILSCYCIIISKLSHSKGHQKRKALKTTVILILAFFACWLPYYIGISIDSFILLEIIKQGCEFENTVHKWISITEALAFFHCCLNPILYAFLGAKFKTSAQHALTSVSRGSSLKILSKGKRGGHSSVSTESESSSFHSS

As for `CC(C)C[C@H](NC(=O)[C@H](CO)NC(=O)[C@@H](NC(=O)[C@@H]1CCCN1C(=O)[C@@H](N)CCCCN)C(C)C)C(=O)N[C@@H](CO)C(=O)N[C@@H](Cc1ccc(O)cc1)C(=O)N[C@@H](CCCNC(=N)N)C(=O)N[C@@H](CO)C(=O)NCCCC[C@H](NC(=O)[C@@H]1CSSC[C@H](NC(=O)[C@H](Cc2ccc3ccccc3c2)NC(=O)[C@H](CCCNC(=N)N)NC(=O)[C@@H](N)CCCNC(=N)N)C(=O)N[C@@H](Cc2ccc(O)cc2)C(=O)N[C@@H](CCCNC(=N)N)C(=O)N[C@@H](CCCCN)C(=O)N[C@H](CCCCN)C(=O)N2CCC[C@H]2C(=O)N[C@@H](Cc2ccc(O)cc2)C(=O)N[C@@H](CCCNC(=N)N)C(=O)N[C@@H](CCCNC(N)=O)C(=O)C1)C(=O)O`, in experiment [1], the IC50 worked out at 21.2 nM. In addition, the outcome in experiment [2] was inactive.
Turning to `CC(C)C[C@H](NC(=O)[C@H](CO)NC(=O)[C@@H](NC(=O)[C@@H]1CCCN1C(=O)[C@@H](N)CCCCN)C(C)C)C(=O)N[C@@H](CO)C(=O)N[C@@H](Cc1ccc(O)cc1)C(=O)N[C@@H](CCCNC(=N)N)C(=O)N[C@@H](CO)C(=O)N[C@@H](C)C(=O)NCCCC[C@H](NC(=O)[C@@H]1CSSC[C@H](NC(=O)[C@H](Cc2ccc3ccccc3c2)NC(=O)[C@H](CCCNC(=N)N)NC(=O)[C@@H](N)CCCNC(=N)N)C(=O)N[C@@H](Cc2ccc(O)cc2)C(=O)N[C@@H](CCCNC(=N)N)C(=O)N[C@@H](CCCCN)C(=O)N[C@H](CCCCN)C(=O)N2CCC[C@H]2C(=O)N[C@@H](Cc2ccc(O)cc2)C(=O)N[C@@H](CCCNC(=N)N)C(=O)N[C@@H](CCCNC(=N)N)C(=O)C1)C(=O)O`, the outcome in experiment [3] was Active.
With `NCCCC[C@@H]1NC(=O)[C@H](CCCN=C(N)N)NC(=O)[C@H](Cc2ccc(O)cc2)NC(=O)[C@@H](NC(=O)[C@H](Cc2ccc3ccccc3c2)NC(=O)[C@H](CCCN=C(N)N)NC(=O)[C@@H](N)CCCN=C(N)N)CSSC[C@@H](C(=O)N[C@@H](CCCN=C(N)N)C(=O)O)CC(=O)[C@H](CCCNC(N)=O)NC(=O)[C@H](CCCN=C(N)N)NC(=O)[C@H](Cc2ccc(O)cc2)NC(=O)[C@@H]2CCCN2C(=O)[C@@H](CCCCN)NC1=O`, the IC50 in experiment [1] is 1.56 nM.
`CC(C)C[C@H](NC(=O)[C@H](CO)NC(=O)[C@@H](NC(=O)[C@@H]1CCCN1C(=O)[C@@H](N)CCCCN)C(C)C)C(=O)N[C@@H](CO)C(=O)N[C@@H](Cc1ccc(O)cc1)C(=O)N[C@@H](CCCNC(=N)N)C(=O)NCCCC[C@H](NC(=O)[C@@H]1CSSC[C@H](NC(=O)[C@H](Cc2ccc3ccccc3c2)NC(=O)[C@H](CCCNC(=N)N)NC(=O)[C@@H](N)CCCNC(=N)N)C(=O)N[C@@H](Cc2ccc(O)cc2)C(=O)N[C@@H](CCCNC(=N)N)C(=O)N[C@@H](CCCCN)C(=O)N[C@H](CCCCN)C(=O)N2CCC[C@H]2C(=O)N[C@@H](Cc2ccc(O)cc2)C(=O)N[C@@H](CCCNC(=N)N)C(=O)N[C@@H](CCCNC(=N)N)C(=O)C1)C(=O)O`: the IC50 in experiment [1] came out at 16.5 nM. Further, in experiment [2], the outcome was inactive.
The corresponding values for `CC(C)C[C@H](NC(=O)[C@H](CO)NC(=O)[C@@H](NC(=O)[C@@H]1CCCN1C(=O)[C@@H](N)CCCCN)C(C)C)C(=O)N[C@@H](CO)C(=O)NCCCC[C@H](NC(=O)[C@@H]1CSSC[C@H](NC(=O)[C@H](Cc2ccc3ccccc3c2)NC(=O)[C@H](CCCNC(=N)N)NC(=O)[C@@H](N)CCCNC(=N)N)C(=O)N[C@@H](Cc2ccc(O)cc2)C(=O)N[C@@H](CCCNC(=N)N)C(=O)N[C@@H](CCCCN)C(=O)N[C@H](CCCCN)C(=O)N2CCC[C@H]2C(=O)N[C@@H](Cc2ccc(O)cc2)C(=O)N[C@@H](CCCNC(=N)N)C(=O)N[C@@H](CCCNC(=N)N)C(=O)C1)C(=O)O` are 28.3 nM and “inactive”.
In experiment [1], `CC(C)C[C@H](NC(=O)[C@H](CO)NC(=O)[C@@H](NC(=O)[C@@H]1CCCN1C(=O)[C@@H](N)CCCCN)C(C)C)C(=O)N[C@@H](CO)C(=O)NCCCC[C@H](NC(=O)[C@@H]1CSSC[C@H](NC(=O)[C@H](Cc2ccc3ccccc3c2)NC(=O)[C@H](CCCN=C(N)N)NC(=O)[C@@H](N)CCCN=C(N)N)C(=O)N[C@@H](Cc2ccc(O)cc2)C(=O)N[C@@H](CCCN=C(N)N)C(=O)N[C@@H](CCCCN)C(=O)N[C@H](CCCCN)C(=O)N2CCC[C@H]2C(=O)N[C@@H](Cc2ccc(O)cc2)C(=O)N[C@@H](CCCN=C(N)N)C(=O)N[C@@H](CCCNC(N)=O)C(=O)C1)C(=O)O` came in with an IC50 of 62 nM.
`CC(C)C[C@H](NC(=O)[C@H](CO)NC(=O)[C@@H](NC(=O)[C@@H]1CCCN1C(=O)[C@@H](N)CCCCN)C(C)C)C(=O)N[C@@H](CO)C(=O)NCCCC[C@H](NC(=O)[C@@H]1CSSC[C@H](NC(=O)[C@H](Cc2ccc3ccccc3c2)NC(=O)[C@H](CCCNC(=N)N)NC(=O)[C@@H](N)CCCNC(=N)N)C(=O)N[C@@H](Cc2ccc(O)cc2)C(=O)N[C@@H](CCCNC(=N)N)C(=O)N[C@@H](CCCCN)C(=O)N[C@H](CCCCN)C(=O)N2CCC[C@H]2C(=O)N[C@@H](Cc2ccc(O)cc2)C(=O)N[C@@H](CCCNC(=N)N)C(=O)N[C@@H](CCCNC(N)=O)C(=O)C1)C(=O)O`: in experiment [2], the result was inactive.
`CC(C)C[C@H](NC(=O)[C@H](CO)NC(=O)[C@@H](NC(=O)[C@@H]1CCCN1C(=O)[C@@H](N)CCCCN)C(C)C)C(=O)N[C@@H](CO)C(=O)N[C@@H](Cc1ccc(O)cc1)C(=O)NCCCC[C@H](NC(=O)[C@@H]1CSSC[C@H](NC(=O)[C@H](Cc2ccc3ccccc3c2)NC(=O)[C@H](CCCNC(=N)N)NC(=O)[C@@H](N)CCCNC(=N)N)C(=O)N[C@@H](Cc2ccc(O)cc2)C(=O)N[C@@H](CCCNC(=N)N)C(=O)N[C@@H](CCCCN)C(=O)N[C@H](CCCCN)C(=O)N2CCC[C@H]2C(=O)N[C@@H](Cc2ccc(O)cc2)C(=O)N[C@@H](CCCNC(=N)N)C(=O)N[C@@H](CCCNC(=N)N)C(=O)C1)C(=O)O` had an IC50 in experiment [1] of 38.6 nM. Besides, in experiment [3], the outcome was Active.
`CC(C)C[C@H](NC(=O)[C@H](CO)NC(=O)[C@@H](NC(=O)[C@@H]1CCCN1C(=O)[C@@H](N)CCCCN)C(C)C)C(=O)N[C@@H](CO)C(=O)N[C@@H](Cc1ccc(O)cc1)C(=O)N[C@@H](CCCN=C(N)N)C(=O)N[C@@H](CO)C(=O)N[C@@H](C)C(=O)NCCCC[C@H](NC(=O)[C@@H]1CSSC[C@H](NC(=O)[C@H](Cc2ccc3ccccc3c2)NC(=O)[C@H](CCCN=C(N)N)NC(=O)[C@@H](N)CCCN=C(N)N)C(=O)N[C@@H](Cc2ccc(O)cc2)C(=O)N[C@@H](CCCN=C(N)N)C(=O)N[C@@H](CCCCN)C(=O)N[C@H](CCCCN)C(=O)N2CCC[C@H]2C(=O)N[C@@H](Cc2ccc(O)cc2)C(=O)N[C@@H](CCCN=C(N)N)C(=O)N[C@@H](CCCN=C(N)N)C(=O)C1)C(=O)O` came in with an IC50 in experiment [1] of 24.9 nM.
The compound `CC(C)C[C@H](NC(=O)[C@H](CO)NC(=O)[C@@H](NC(=O)[C@@H]1CCCN1C(=O)[C@@H](N)CCCCN)C(C)C)C(=O)N[C@@H](CO)C(=O)N[C@@H](Cc1ccc(O)cc1)C(=O)N[C@@H](CCCN=C(N)N)C(=O)NCCCC[C@@H]1NC(=O)[C@H](CCCN=C(N)N)NC(=O)[C@H](Cc2ccc(O)cc2)NC(=O)[C@@H]2CCCN2C(=O)[C@@H](CCCCN)NC(=O)[C@H](CCCCN)NC(=O)[C@H](CCCN=C(N)N)NC(=O)[C@H](Cc2ccc(O)cc2)NC(=O)[C@@H](NC(=O)[C@H](Cc2ccc3ccccc3c2)NC(=O)[C@H](CCCN=C(N)N)NC(=O)[C@@H](N)CCCN=C(N)N)CSSC[C@@H](C(=O)N[C@@H](CCCN=C(N)N)C(=O)O)CC1=O` displayed an IC50 in experiment [1] of 1.36 nM.
Consider `CC(C)C[C@H](NC(=O)[C@H](CO)NC(=O)[C@@H](NC(=O)[C@@H]1CCCN1C(=O)[C@@H](N)CCCCN)C(C)C)C(=O)N[C@@H](CO)C(=O)N[C@@H](Cc1ccc(O)cc1)C(=O)N[C@@H](CCCNC(=N)N)C(=O)NCCCC[C@@H]1NC(=O)[C@H](CCCNC(=N)N)NC(=O)[C@H](Cc2ccc(O)cc2)NC(=O)[C@@H]2CCCN2C(=O)[C@@H](CCCCN)NC(=O)[C@H](CCCCN)NC(=O)[C@H](CCCNC(=N)N)NC(=O)[C@H](Cc2ccc(O)cc2)NC(=O)[C@@H](NC(=O)[C@H](Cc2ccc3ccccc3c2)NC(=O)[C@H](CCCNC(=N)N)NC(=O)[C@@H](N)CCCNC(=N)N)CSSC[C@@H](C(=O)N[C@@H](CCCNC(=N)N)C(=O)O)CC1=O`, for which the result in experiment [4] was Active.
Take `CC(C)C[C@H](NC(=O)[C@H](CO)NC(=O)[C@@H](NC(=O)[C@@H]1CCCN1C(=O)[C@@H](N)CCCCN)C(C)C)C(=O)N[C@@H](CO)C(=O)N[C@@H](Cc1ccc(O)cc1)C(=O)N[C@@H](CCCN=C(N)N)C(=O)NCCCC[C@H](NC(=O)[C@@H]1CSSC[C@H](NC(=O)[C@H](Cc2ccc3ccccc3c2)NC(=O)[C@H](CCCN=C(N)N)NC(=O)[C@@H](N)CCCN=C(N)N)C(=O)N[C@@H](Cc2ccc(O)cc2)C(=O)N[C@@H](CCCN=C(N)N)C(=O)N[C@@H](CCCCN)C(=O)N[C@H](CCCCN)C(=O)N2CCC[C@H]2C(=O)N[C@@H](Cc2ccc(O)cc2)C(=O)N[C@@H](CCCN=C(N)N)C(=O)N[C@@H](CCCNC(N)=O)C(=O)C1)C(=O)O`: the IC50 in experiment [1] came to 21.7 nM.
For `CC(C)C[C@H](NC(=O)[C@H](CO)NC(=O)[C@@H](NC(=O)[C@@H]1CCCN1C(=O)[C@@H](N)CCCCN)C(C)C)C(=O)N[C@@H](CO)C(=O)N[C@@H](Cc1ccc(O)cc1)C(=O)N[C@@H](CCCNC(=N)N)C(=O)N[C@@H](CO)C(=O)NCCCC[C@H](NC(=O)[C@@H]1CSSC[C@H](NC(=O)[C@H](Cc2ccc3ccccc3c2)NC(=O)[C@H](CCCNC(=N)N)NC(=O)[C@@H](N)CCCNC(=N)N)C(=O)N[C@@H](Cc2ccc(O)cc2)C(=O)N[C@@H](CCCNC(=N)N)C(=O)N[C@@H](CCCCN)C(=O)N[C@H](CCCCN)C(=O)N2CCC[C@H]2C(=O)N[C@@H](Cc2ccc(O)cc2)C(=O)N[C@@H](CCCNC(=N)N)C(=O)N[C@@H](CCCNC(=N)N)C(=O)C1)C(=O)O`, in experiment [3], the outcome was Active.
For `CC(C)C[C@H](NC(=O)[C@H](CO)NC(=O)[C@@H](NC(=O)[C@@H]1CCCN1C(=O)[C@@H](N)CCCCN)C(C)C)C(=O)N[C@@H](CO)C(=O)N[C@@H](Cc1ccc(O)cc1)C(=O)N[C@@H](CCCN=C(N)N)C(=O)N[C@@H](CO)C(=O)NCCCC[C@H](NC(=O)[C@@H]1CSSC[C@H](NC(=O)[C@H](Cc2ccc3ccccc3c2)NC(=O)[C@H](CCCN=C(N)N)NC(=O)[C@@H](N)CCCN=C(N)N)C(=O)N[C@@H](Cc2ccc(O)cc2)C(=O)N[C@@H](CCCN=C(N)N)C(=O)N[C@@H](CCCCN)C(=O)N[C@H](CCCCN)C(=O)N2CCC[C@H]2C(=O)N[C@@H](Cc2ccc(O)cc2)C(=O)N[C@@H](CCCN=C(N)N)C(=O)N[C@@H](CCCN=C(N)N)C(=O)C1)C(=O)O`, the IC50 in experiment [1] was determined as 5.67 nM.
